Common to all, as to assay: DTP human tumour cell line panel, 48 h
In experiment [1] the test system is TK-10 renal.
The test system of experiment [2] is 786-0 renal.
Experiment [3] has as its system SF-539 CNS.
Experiment [4] deals with BT-549 breast.
Experiment [5] relates to HL-60(TB) leukemia.
In experiment [6] the test system is SK-MEL-28 melanoma.
The subject of experiment [7] is IGROV1 ovarian.
For experiment [8], the system named is UACC-62 melanoma.
Experiment [9] deals with MDA-N.
Experiment [10] relates to LOX IMVI melanoma.
Experiment [11] deals with ACHN renal.
Experiment [12] has as its system T-47D breast.

Values joined by “and” are separate entries in the source; they are usually repeats but may differ in a detail not shown here. Equal values may be shown once.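 The compound was tested at five concentrations on cells cultured in 96-well plates, with a 48-hour exposure period. The concentration for 50% growth inhibition is given as GI50. TGI: total growth inhibition.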

What is called TGI is the concentration giving total growth inhibition. Turning to `N#Cc1c(N)[nH]c(=S)c(C#N)c1-c1cccc(Cl)c1`, the TGI is more than 100 µM in [1]; 34.2 µM in experiment [2]; more than 100 µM in [3]; more than 100 µM in experiment [4]; 65.2 µM in experiment [5]; more than 100 µM in experiment [6]. Further, the TGI in experiment [7] was more than 100 µM; in [8] it was more than 100 µM; in experiment [9], 37.8 µM; in experiment [10], more than 100 µM; in experiment [11], more than 100 µM.
With `COc1ccc2nc(-c3ccc(OCc4ccccc4)cc3)ccc2c1`, the TGI in experiment [1], in [2], in [3], in experiment [5], in [6] and in experiment [7] was more than 100 µM in each case. Also, the TGI in experiment [8], in [10] and in [11] was more than 100 µM in each case.
`COc1ccc(C2C(Cl)C(=O)N2NC(=O)c2ccc(NC(C)=O)cc2)cc1` (stereo unspecified): the TGI in experiment [1], in experiment [2], in experiment [3], in [5], in [6] and in experiment [7] was more than 100 µM each time. Also, the TGI in experiment [8], in experiment [10] and in experiment [11] was more than 100 µM each time.
Turning to `Cc1c(Cl)ccc2c(=O)c3cccc(CC(=O)O)c3oc12`, the TGI in experiment [1], in [2], in [3], in experiment [4], in [5] and in [6] was more than 100 µM in each case. Besides, the TGI in [7], in [9], in [10] and in experiment [11] was more than 100 µM in each case.
On to `COC1(C)CC2N(C(=O)c3ccccc3)N=C(c3ccccc3)CC2(C)O1` (stereo unspecified), for which the TGI in [2], in experiment [3], in experiment [5], in experiment [7], in [8] and in experiment [10] was more than 100 µM in each case. The same compound gave a TGI in experiment [11] of more than 100 µM.
As to `Cc1ccccc1C1OC1C(=O)c1ccccc1N` (stereo unspecified), the TGI in experiment [1] was more than 100 µM; in [2], more than 100 µM; in [3] it was more than 100 µM; in [6], more than 100 µM; in experiment [8] it was more than 100 µM; in experiment [9], 36.3 µM. Also, the TGI in experiment [10] and in experiment [11] was more than 100 µM throughout.
Consider `Cc1c(/C=N\NC(=S)N2CCN(C(=S)N/N=C\c3c(C)n(C)n(-c4ccccc4)c3=O)CC2)c(=O)n(-c2ccccc2)n1C`, for which the TGI is 33.9 µM in [1]; more than 100 µM in experiment [2]; more than 100 µM in experiment [3]; more than 100 µM in [4]; more than 100 µM in experiment [12]; more than 100 µM in experiment [8]. For the same compound, the TGI in experiment [11] is more than 100 µM.
As for `O=c1oc2ccccc2c(O)c1C(c1cc(OCc2ccccc2)cc(OCc2ccccc2)c1)c1c(O)c2ccccc2oc1=O`, the TGI worked out at 33.4 µM in experiment [1]; 31.7 µM in experiment [2]; 36.7 µM in experiment [3]; 20.9 µM in [4]; 51.8 µM in experiment [6]; 38.1 µM in [12]. The TGI in experiment [7] came out at 51.2 µM; in experiment [8], 15.7 µM; in experiment [10], 77.5 µM; in experiment [11], 7.99 µM.
Take `O=C1O[C@@H](c2ccccc2)C[C@@H]1CN1CCOCC1`: the TGI in experiment [1], in experiment [2], in [3], in experiment [5], in [6] and in experiment [7] was more than 100 µM throughout. For the same compound, the TGI in experiment [8], in [10] and in [11] was more than 100 µM throughout.
As to `C[N+](C)(C)CC(=O)N/N=c1\cc(C(=O)Nc2ccc(N=O)cc2C#N)oc2cc(O)ccc12`, the total growth inhibition concentration (TGI) in experiment [1], in experiment [2], in experiment [3], in experiment [5], in experiment [6] and in experiment [7] was more than 100 µM each time. Further, the TGI in experiment [8], in experiment [10] and in experiment [11] was more than 100 µM throughout.
Turning to `Cc1c(Cl)cccc1NC(=O)C(=O)C1C(=O)CC(C)(C)CC1=O`, the TGI in [1], in experiment [2], in [3], in experiment [5], in experiment [6] and in experiment [7] was more than 100 µM each time. Moreover, the TGI in [8], in [10] and in experiment [11] was more than 100 µM each time.
As to `CC1(C)CC2(C)CC1CC2O` (stereo unspecified), the TGI in [1], in experiment [2], in experiment [3], in experiment [4], in experiment [5] and in experiment [6] was more than 100 µM throughout. The TGI in experiment [7], in experiment [8], in experiment [9] and in experiment [10] was more than 100 µM each time.
On to `Nc1nc2ncc(SCc3ccc(C(=O)NC(CCC(=O)O)C(=O)O)cc3)cc2c(=O)[nH]1` (stereo unspecified), for which the TGI in experiment [1], in experiment [2], in [3], in experiment [4], in experiment [5] and in experiment [6] was more than 100 µM each time. For the same compound, the TGI in experiment [7], in experiment [8], in experiment [9], in experiment [10] and in experiment [11] was more than 100 µM each time.
As for `N#C/C(=C\NC(=S)Nc1ccc(S(=O)(=O)Nc2ccccn2)cc1)C(N)=O`, the TGI in experiment [1], in experiment [2], in experiment [3], in experiment [6], in experiment [7] and in experiment [8] was more than 100 µM throughout. The TGI in [9], in experiment [10] and in [11] was more than 100 µM each time.
Turning to `N#CCCN(c1ccc(C=Nc2cccc([N+](=O)[O-])c2)cc1)S(=O)(=O)c1ccccc1`, the TGI in [1], in experiment [2], in experiment [3], in experiment [5], in [6] and in [7] was more than 100 µM each time. Further, in experiment [8], the TGI is more than 100 µM.
For the compound `COc1cc2c(cc1OCCCCCOc1cc3c(cc1OC)C(=O)N1CCC[C@H]1C(=O)N3)N=C[C@@H]1CCCN1C2=O`, the TGI in experiment [1] was determined as 0.253 µM; in experiment [2] it was 4.71 µM; in experiment [3], 0.0562 µM; in experiment [4] it was 6.67 µM; in experiment [5], 1.51 µM; in [6], 0.332 µM. For the same compound, the TGI is more than 100 µM in experiment [12], 0.193 µM in experiment [8], 0.997 µM in [10] and 4.05 µM in experiment [11].
`O=C1CC2(C[C@@H]3CCCCCCCCC[C@@H](C3)C2)N1` (stereo partly specified): the TGI in [1] is 31.2 µM; in experiment [2], 30.4 µM; in experiment [3], 30.4 µM; in experiment [5], 38.8 µM; in experiment [6], 31.5 µM; in experiment [7], 27.9 µM. Besides, the TGI in [8] was determined as 30.3 µM; in experiment [11] it was 29.3 µM.
Take `CCCN=C1CC(C)Nc2ccccc2N1` (stereo unspecified): the TGI in experiment [1], in [2], in experiment [4], in experiment [5], in experiment [6] and in experiment [7] was more than 100 µM throughout. In addition, the TGI in [8], in experiment [9] and in [11] was more than 100 µM throughout.
For `O=C(NS(=O)(=O)Nc1ccc(Cl)cc1)OCc1ccc(Cl)cc1Cl`, the TGI in experiment [1] is 41.9 µM; in [2], more than 100 µM; in [3], 40.6 µM; in experiment [4] it was 82.3 µM; in [5] it was 87.2 µM; in experiment [6], 97.5 µM. Further, the TGI was 52.8 µM in [7]; 32.3 µM in experiment [8]; 50.3 µM in experiment [9]; 57.3 µM in experiment [10]; more than 100 µM in experiment [11].
Take `COC(=O)c1cc(CC(C)C)c2c(c1)[nH]c1ccccc12`: the TGI in [1], in experiment [2], in experiment [3], in experiment [6], in [7] and in experiment [8] was more than 100 µM throughout. In addition, the TGI in experiment [10] and in experiment [11] was more than 100 µM in each case.
As for `CC(C)(C)OC(=O)NC(C)(C)C(=O)NCCC(=O)O`, the TGI in [1], in experiment [2], in experiment [3], in [4], in experiment [6] and in [12] was more than 100 µM in each case. Further, the TGI in [7], in experiment [8], in [10] and in experiment [11] was more than 100 µM throughout.
As for `CC(C)C(Sc1nc(-c2ccccc2)c(-c2ccccc2)[nH]1)C(=O)NNC(=S)Nc1ccccc1` (stereo unspecified), the TGI is more than 100 µM in experiment [1]; 35.8 µM in experiment [2]; 35.8 µM in [3]; 40.1 µM in experiment [5]; 41.1 µM in [6]; 35.7 µM in experiment [7]. Further, the TGI amounted to 12.4 µM in experiment [8], 29.3 µM in experiment [10] and 87 µM in [11].
Turning to `CCOC(=O)C(OCC1CC=CCC1)Sc1ccccc1` (stereo unspecified), the TGI in experiment [1], in experiment [2], in experiment [3], in [5], in [6] and in experiment [7] was more than 100 µM each time. Moreover, the TGI in [8], in experiment [10] and in [11] was more than 100 µM each time.
As to `c1ccc(C[P+]2(c3ccccc3)c3ccccc3-c3ccccc32)cc1`, the TGI in experiment [1], in experiment [2], in experiment [3], in [4], in experiment [5] and in experiment [6] was more than 100 µM throughout. Further, the TGI in experiment [7], in experiment [8], in [9] and in experiment [10] was more than 100 µM each time.
Take `CCSc1nnc(CSc2nc(-c3ccccc3)c(-c3ccccc3)[nH]2)n1-c1ccccc1`: the TGI in experiment [1] turned out to be 57.1 µM; in experiment [2] it was 45.7 µM; in [5] it was 45.5 µM; in experiment [6] it was 37 µM; in experiment [7] it was 42.3 µM; in experiment [8] it was 30.2 µM. Moreover, the TGI in experiment [10] worked out at 43.8 µM; in experiment [11], 33.4 µM.
A word on the GI50: it is the concentration at which growth is held to half of that of the control. Consider `CCCCCCCCCC[C@@H](O)[C@H]1CC[C@H]([C@H]2CC[C@H]([C@H](O)CCCCCCCCCC[C@@H]3CC(CC(C)=O)C(=O)O3)O2)O1` (stereo partly specified), for which the GI50 is 2.33 µM in experiment [1]; 2.25 µM in [5]; 5.26 µM in [6]; 14.9 µM in [8]; 0.935 µM in [10]; 0.422 µM in experiment [11]. The TGI in experiment [1] was more than 50 µM; in experiment [2], more than 50 µM; in experiment [3] it was more than 50 µM; in experiment [4], more than 50 µM; in [5] it was 9.6 µM and > 50 µM; in experiment [6] it was more than 50 µM. Further, the TGI in [12], in [7], in experiment [8], in [10] and in experiment [11] was more than 50 µM throughout.
As for `CCOC(=O)C1=C(C)N(c2ccccc2)C2=C(C(=O)N(c3ccccc3)C2c2ccccc2)C1c1ccccc1` (stereo unspecified), the TGI in [1], in experiment [2], in experiment [3], in experiment [5], in experiment [6] and in experiment [7] was more than 100 µM throughout. The TGI in [8], in [10] and in experiment [11] was more than 100 µM throughout.
As for `COc1ccc(/C(=C/n2ccnc2)C(=O)c2ccc(OC)c(OC)c2)cc1`, the TGI in experiment [1], in [2], in [3], in experiment [5], in [6] and in [8] was more than 100 µM throughout. The TGI in experiment [10] and in experiment [11] was more than 100 µM each time.
